Test results from PubChem BioAssay (NCI).
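Following 48 hours of exposure in 96-well plates, responses at five concentrations were used to interpolate endpoints linearly. TGI: total growth inhibition.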

Experiments:
Assay in all cases: NCI tumour cell line growth inhibition, 48 h
SK-MEL-28 melanoma = system: SK-MEL-28 melanoma
HT29 colon = system: HT29 colon
HCC-2998 colon = system: HCC-2998 colon
OVCAR-8 ovarian = system: OVCAR-8 ovarian
SF-268 CNS = system: SF-268 CNS
MALME-3M melanoma = system: MALME-3M melanoma
KM12 colon = system: KM12 colon
M19-MEL melanoma = system: M19-MEL melanoma
M14 melanoma = system: M14 melanoma
UACC-257 melanoma = system: UACC-257 melanoma
SK-OV-3 ovarian = system: SK-OV-3 ovarian
NCI-H23 lung = system: NCI-H23 lung
NCI-H226 lung = system: NCI-H226 lung
A549 NSCLC = system: A549 NSCLC
NCI-H460 lung = system: NCI-H460 lung
TK-10 renal = system: TK-10 renal
K-562 leukemia = system: K-562 leukemia
COLO 205 colon = system: COLO 205 colon
DLD-1 colon = system: DLD-1 colon
RPMI-8226 leukemia = system: RPMI-8226 leukemia
SK-MEL-2 melanoma = system: SK-MEL-2 melanoma
DMS 114 small cell lung = system: DMS 114 small cell lung
SF-295 CNS = system: SF-295 CNS
LXFL 529 NSCLC = system: LXFL 529 NSCLC
XF 498 CNS = system: XF 498 CNS
786-0 renal = system: 786-0 renal
HCT-116 colon = system: HCT-116 colon
UO-31 renal = system: UO-31 renal
SNB-78 CNS = system: SNB-78 CNS
OVCAR-5 ovarian = system: OVCAR-5 ovarian
OVCAR-4 ovarian = system: OVCAR-4 ovarian
ACHN renal = system: ACHN renal
SN12C renal = system: SN12C renal
CCRF-CEM leukemia = system: CCRF-CEM leukemia
HCT-15 colon = system: HCT-15 colon
SNB-75 CNS = system: SNB-75 CNS
OVCAR-3 ovarian = system: OVCAR-3 ovarian
MOLT-4 leukemia = system: MOLT-4 leukemia
HOP-18 NSCLC = system: HOP-18 NSCLC
SF-539 CNS = system: SF-539 CNS
U251 CNS = system: U251 CNS
IGROV1 ovarian = system: IGROV1 ovarian
SK-MEL-5 melanoma = system: SK-MEL-5 melanoma
DMS 273 small cell lung = system: DMS 273 small cell lung
HL-60(TB) leukemia = system: HL-60(TB) leukemia
HOP-92 NSCLC = system: HOP-92 NSCLC
UACC-62 melanoma = system: UACC-62 melanoma
CAKI-1 renal = system: CAKI-1 renal
NCI-H522 lung = system: NCI-H522 lung
KM20L2 colon = system: KM20L2 colon
SNB-19 CNS = system: SNB-19 CNS
EKVX NSCLC = system: EKVX NSCLC
SW-620 colon = system: SW-620 colon
SR leukemia = system: SR leukemia
HOP-62 NSCLC = system: HOP-62 NSCLC
LOX IMVI melanoma = system: LOX IMVI melanoma
RXF 393 renal = system: RXF 393 renal
A498 renal = system: A498 renal

For `CSC1(C)CC2C(CC1N1CCOCC1)C2(C)C` (centres undefined), the TGI (SK-MEL-28 melanoma) was greater than 100 µM, the TGI (HT29 colon) was greater than 100 µM and the TGI (HCC-2998 colon) was greater than 100 µM. The TGI (OVCAR-8 ovarian) was greater than 100 µM, the TGI (SF-268 CNS) was greater than 100 µM and the TGI (MALME-3M melanoma) was greater than 100 µM. For the same compound, the TGI (KM12 colon) was greater than 100 µM, the TGI (M19-MEL melanoma) was greater than 100 µM and the TGI (M14 melanoma) was greater than 100 µM. The TGI (UACC-257 melanoma) was greater than 100 µM, the TGI (SK-OV-3 ovarian) was greater than 100 µM and the TGI (NCI-H23 lung) was greater than 100 µM. It also gave a TGI (NCI-H226 lung) greater than 100 µM, a TGI (A549 NSCLC) greater than 100 µM and a TGI (NCI-H460 lung) greater than 100 µM. It also gave a TGI (TK-10 renal) greater than 100 µM, a TGI (K-562 leukemia) greater than 100 µM and a TGI (COLO 205 colon) greater than 100 µM. It also gave a TGI (DLD-1 colon) greater than 100 µM, a TGI (RPMI-8226 leukemia) greater than 100 µM and a TGI (SK-MEL-2 melanoma) greater than 100 µM. For the same compound, the TGI (DMS 114 small cell lung) was greater than 100 µM, the TGI (SF-295 CNS) was greater than 100 µM and the TGI (LXFL 529 NSCLC) was greater than 100 µM. The TGI (XF 498 CNS) was greater than 100 µM, the TGI (786-0 renal) was greater than 100 µM and the TGI (HCT-116 colon) was greater than 100 µM. For the same compound, the TGI (UO-31 renal) was greater than 100 µM, the TGI (SNB-78 CNS) was greater than 100 µM and the TGI (OVCAR-5 ovarian) was greater than 100 µM. For the same compound, the TGI (OVCAR-4 ovarian) was greater than 100 µM, the TGI (ACHN renal) was greater than 100 µM and the TGI (SN12C renal) was greater than 100 µM. It also gave a TGI (CCRF-CEM leukemia) greater than 100 µM, a TGI (HCT-15 colon) greater than 100 µM and a TGI (SNB-75 CNS) greater than 100 µM. It also gave a TGI (OVCAR-3 ovarian) greater than 100 µM, a TGI (MOLT-4 leukemia) greater than 100 µM and a TGI (HOP-18 NSCLC) greater than 100 µM. For the same compound, the TGI (SF-539 CNS) was greater than 100 µM, the TGI (U251 CNS) was greater than 100 µM and the TGI (IGROV1 ovarian) was greater than 100 µM. It also gave a TGI (SK-MEL-5 melanoma) greater than 100 µM, a TGI (DMS 273 small cell lung) greater than 100 µM and a TGI (HL-60(TB) leukemia) greater than 100 µM. For the same compound, the TGI (HOP-92 NSCLC) was greater than 100 µM.

For `Cc1ccc(C2C(Cl)C(=O)N2n2cnc3ccccc3c2=O)cc1` (centres undefined), the TGI (SK-MEL-28 melanoma) was greater than 100 µM, the TGI (HT29 colon) was greater than 100 µM and the TGI (HCC-2998 colon) was greater than 100 µM. For the same compound, the TGI (OVCAR-8 ovarian) was greater than 100 µM, the TGI (SF-268 CNS) was greater than 100 µM and the TGI (MALME-3M melanoma) was greater than 100 µM. It also gave a TGI (KM12 colon) greater than 100 µM, a TGI (M19-MEL melanoma) greater than 100 µM and a TGI (M14 melanoma) greater than 100 µM. For the same compound, the TGI (UACC-62 melanoma) was greater than 100 µM, the TGI (UACC-257 melanoma) was greater than 100 µM and the TGI (SK-OV-3 ovarian) was greater than 100 µM. The TGI (NCI-H23 lung) was greater than 100 µM, the TGI (NCI-H226 lung) was greater than 100 µM and the TGI (A549 NSCLC) was greater than 100 µM. It also gave a TGI (NCI-H460 lung) greater than 100 µM, a TGI (TK-10 renal) greater than 100 µM and a TGI (K-562 leukemia) greater than 100 µM. For the same compound, the TGI (CAKI-1 renal) was greater than 100 µM, the TGI (COLO 205 colon) was greater than 100 µM and the TGI (NCI-H522 lung) was greater than 100 µM. The TGI (DLD-1 colon) was greater than 100 µM, the TGI (RPMI-8226 leukemia) was greater than 100 µM and the TGI (KM20L2 colon) was greater than 100 µM. For the same compound, the TGI (SK-MEL-2 melanoma) was greater than 100 µM, the TGI (DMS 114 small cell lung) was greater than 100 µM and the TGI (SF-295 CNS) was greater than 100 µM. For the same compound, the TGI (LXFL 529 NSCLC) was greater than 100 µM, the TGI (XF 498 CNS) was greater than 100 µM and the TGI (786-0 renal) was greater than 100 µM. For the same compound, the TGI (HCT-116 colon) was greater than 100 µM, the TGI (UO-31 renal) was 90.4 µM and the TGI (SNB-78 CNS) was greater than 100 µM. The TGI (OVCAR-5 ovarian) was greater than 100 µM, the TGI (OVCAR-4 ovarian) was greater than 100 µM and the TGI (ACHN renal) was greater than 100 µM. For the same compound, the TGI (SN12C renal) was greater than 100 µM, the TGI (CCRF-CEM leukemia) was greater than 100 µM and the TGI (SNB-19 CNS) was greater than 100 µM. The TGI (EKVX NSCLC) was greater than 100 µM, the TGI (HCT-15 colon) was greater than 100 µM and the TGI (SW-620 colon) was greater than 100 µM. For the same compound, the TGI (SNB-75 CNS) was greater than 100 µM, the TGI (OVCAR-3 ovarian) was greater than 100 µM and the TGI (SR leukemia) was greater than 100 µM. It also gave a TGI (MOLT-4 leukemia) greater than 100 µM, a TGI (HOP-62 NSCLC) greater than 100 µM and a TGI (HOP-18 NSCLC) greater than 100 µM. For the same compound, the TGI (U251 CNS) was greater than 100 µM, the TGI (IGROV1 ovarian) was greater than 100 µM and the TGI (SK-MEL-5 melanoma) was greater than 100 µM. For the same compound, the TGI (LOX IMVI melanoma) was greater than 100 µM, the TGI (DMS 273 small cell lung) was greater than 100 µM and the TGI (HL-60(TB) leukemia) was greater than 100 µM. The TGI (RXF 393 renal) was greater than 100 µM.

In the case of `Cc1c(C(=N)N)oc2ccccc12`, the TGI (SK-MEL-28 melanoma) was greater than 100 µM, the TGI (HT29 colon) was greater than 100 µM and the TGI (HCC-2998 colon) was greater than 100 µM. For the same compound, the TGI (OVCAR-8 ovarian) was greater than 100 µM, the TGI (SF-268 CNS) was greater than 100 µM and the TGI (MALME-3M melanoma) was greater than 100 µM. The TGI (KM12 colon) was greater than 100 µM, the TGI (M19-MEL melanoma) was greater than 100 µM and the TGI (M14 melanoma) was greater than 100 µM. It also gave a TGI (UACC-62 melanoma) greater than 100 µM, a TGI (UACC-257 melanoma) greater than 100 µM and a TGI (SK-OV-3 ovarian) greater than 100 µM. The TGI (NCI-H23 lung) was greater than 100 µM, the TGI (NCI-H226 lung) was greater than 100 µM and the TGI (A549 NSCLC) was greater than 100 µM. For the same compound, the TGI (NCI-H460 lung) was greater than 100 µM, the TGI (TK-10 renal) was greater than 100 µM and the TGI (K-562 leukemia) was greater than 100 µM. For the same compound, the TGI (CAKI-1 renal) was greater than 100 µM, the TGI (COLO 205 colon) was greater than 100 µM and the TGI (NCI-H522 lung) was greater than 100 µM. It also gave a TGI (DLD-1 colon) greater than 100 µM, a TGI (KM20L2 colon) greater than 100 µM and a TGI (DMS 114 small cell lung) greater than 100 µM. The TGI (SF-295 CNS) was greater than 100 µM, the TGI (LXFL 529 NSCLC) was greater than 100 µM and the TGI (XF 498 CNS) was greater than 100 µM. The TGI (786-0 renal) was greater than 100 µM, the TGI (HCT-116 colon) was greater than 100 µM and the TGI (UO-31 renal) was greater than 100 µM. The TGI (SNB-78 CNS) was greater than 100 µM, the TGI (OVCAR-4 ovarian) was greater than 100 µM and the TGI (ACHN renal) was greater than 100 µM. It also gave a TGI (SN12C renal) greater than 100 µM, a TGI (CCRF-CEM leukemia) greater than 100 µM and a TGI (SNB-19 CNS) greater than 100 µM. The TGI (EKVX NSCLC) was greater than 100 µM, the TGI (SW-620 colon) was greater than 100 µM and the TGI (SNB-75 CNS) was greater than 100 µM. The TGI (OVCAR-3 ovarian) was greater than 100 µM, the TGI (SR leukemia) was greater than 100 µM and the TGI (MOLT-4 leukemia) was greater than 100 µM. For the same compound, the TGI (HOP-62 NSCLC) was greater than 100 µM, the TGI (HOP-18 NSCLC) was greater than 100 µM and the TGI (A498 renal) was greater than 100 µM. It also gave a TGI (SF-539 CNS) greater than 100 µM, a TGI (U251 CNS) greater than 100 µM and a TGI (IGROV1 ovarian) greater than 100 µM. For the same compound, the TGI (SK-MEL-5 melanoma) was greater than 100 µM, the TGI (LOX IMVI melanoma) was greater than 100 µM and the TGI (HL-60(TB) leukemia) was greater than 100 µM. For the same compound, the TGI (RXF 393 renal) was greater than 100 µM and the TGI (HOP-92 NSCLC) was greater than 100 µM.
